Experimental data published in PubChem BioAssay AID330 (DTP/NCI, 2004).
Where “and” joins values, the source holds several entries; their conditions need not be identical. Identical values can stand only once. Inconclusive results and toxic doses are left out.

System: P388 leukemia ip, CD2F1 mice, survival T/C
Assay: NCI In Vivo Anticancer Drug Screen. Data for tumor model P388 Leukemia (intraperitoneal) in CD2F1 (CDF1) mice
Conditions: endpoint: median survival time, higher = longer survival
Outline: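 Mice carrying the transplanted tumor received test compound or vehicle. Survival was recorded in each group, and the value is the treated-group measurement divided by that of the vehicle-treated control group.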

[1] = dose: 60.0 mg/kg/injection, schedule: Q01DX005 (ip), vehicle: Klucel (hydroxypropylcellulose) (HPC)
[2] = dose: 120.0 mg/kg/injection, schedule: Q01DX005 (ip), vehicle: Klucel (hydroxypropylcellulose) (HPC)
[3] = dose: 240.0 mg/kg/injection, schedule: Q01DX005 (ip), vehicle: Klucel (hydroxypropylcellulose) (HPC)
[4] = dose: 50.0 mg/kg/injection, schedule: Q01DX009 (ip), vehicle: Klucel (hydroxypropylcellulose) (HPC)
[5] = dose: 100.0 mg/kg/injection, schedule: Q01DX009 (ip), vehicle: Klucel (hydroxypropylcellulose) (HPC)
[6] = dose: 200.0 mg/kg/injection, schedule: Q01DX009 (ip), vehicle: Klucel (hydroxypropylcellulose) (HPC)
[7] = dose: 25.0 mg/kg/injection, schedule: Q01DX009 (ip), vehicle: saline with Tween-80
[8] = dose: 50.0 mg/kg/injection, schedule: Q01DX009 (ip), vehicle: saline with Tween-80
[9] = dose: 100.0 mg/kg/injection, schedule: Q01DX009 (ip), vehicle: saline with Tween-80
[10] = dose: 200.0 mg/kg/injection, schedule: Q01DX009 (ip), vehicle: saline with Tween-80

Which results are given for `COc1ccc(-c2c(C)oc(C)c2C(C)=O)cc1OC`?
T/C [1]: 98 % of control; T/C [2]: 102 % of control; T/C [3]: 101 % of control

What does the source list for `CC(C)=CCC(O)C1=CC(=O)c2c(O)ccc(O)c2C1=O` (stereo not given)?
T/C (dose: 0.5 mg/kg/injection, schedule: Q01DX009 (ip), vehicle: saline with Tween-80): 102 % of control; T/C (dose: 1.0 mg/kg/injection, schedule: Q01DX009 (ip), vehicle: saline with Tween-80): 110 % of control; T/C (dose: 1.25 mg/kg/injection, schedule: Q01DX009 (ip), vehicle: Klucel (hydroxypropylcellulose) (HPC)): 107 % of control and 109 % of control and 110 % of control; T/C (dose: 2.0 mg/kg/injection, schedule: Q01DX009 (ip), vehicle: saline with Tween-80): 110 % of control; T/C (dose: 2.5 mg/kg/injection, schedule: Q01DX009 (ip), vehicle: Klucel (hydroxypropylcellulose) (HPC)): 107 % of control and 108 % of control and 112 % of control; T/C (dose: 2.5 mg/kg/injection, schedule: Q01DX009 (ip), vehicle: saline with Tween-80): 102 % of control; T/C (dose: 5.0 mg/kg/injection, schedule: Q01DX009 (ip), vehicle: Klucel (hydroxypropylcellulose) (HPC)): 117 % of control and 120 % of control; T/C (dose: 5.0 mg/kg/injection, schedule: Q01DX009 (ip), vehicle: saline with Tween-80): 108 % of control; T/C (dose: 10.0 mg/kg/injection, schedule: Q01DX009 (ip), vehicle: Klucel (hydroxypropylcellulose) (HPC)): 110 % of control and 120 % of control; T/C (dose: 15.0 mg/kg/injection, schedule: Q01DX009 (ip), vehicle: saline with Tween-80): 100 % of control; T/C (dose: 15.0 mg/kg/injection, schedule: Q04DX003 (ip), vehicle: saline with Tween-80): 100 % of control; T/C (dose: 30.0 mg/kg/injection, schedule: Q01DX009 (ip), vehicle: saline with Tween-80): 90 % of control; T/C (dose: 30.0 mg/kg/injection, schedule: Q04DX003 (ip), vehicle: saline with Tween-80): 109 % of control; T/C (dose: 50.0 mg/kg/injection, schedule: Q01DX005 (ip), vehicle: saline with Tween-80): 97 % of control; T/C (dose: 100.0 mg/kg/injection, schedule: Q01DX005 (ip), vehicle: saline with Tween-80): 91 % of control; T/C (dose: 200.0 mg/kg/injection, schedule: Q01DX005 (ip), vehicle: saline with Tween-80): 99 % of control

`C/C=C/Cc1n[nH]c(=O)c2c(C)[nH]nc12` was tested. Which T/C (dose: 25.0 mg/kg/injection, schedule: Q04DX002 (ip), vehicle: Klucel (hydroxypropylcellulose) (HPC)) did it give?
Its T/C is 105 % of control.

What about the T/C (dose: 50.0 mg/kg/injection, schedule: Q04DX002 (ip), vehicle: Klucel (hydroxypropylcellulose) (HPC)) of the same compound?
The T/C was 103 % of control.

What about the T/C (dose: 100.0 mg/kg/injection, schedule: Q04DX002 (ip), vehicle: Klucel (hydroxypropylcellulose) (HPC)) of the same compound?
Its T/C is 104 % of control and 90 % of control.

For `c1ccc(N2OCC3c4ccccc4-c4ccccc4C32)cc1` (stereo not given), which T/C (dose: 50.0 mg/kg/injection, schedule: Q04DX002 (ip), vehicle: suspension in saline) is on record?
The T/C was 100 % of control.

And the T/C (dose: 100.0 mg/kg/injection, schedule: Q04DX002 (ip), vehicle: suspension in saline)?
Its T/C is 104 % of control.

What about the T/C (dose: 200.0 mg/kg/injection, schedule: Q04DX002 (ip), vehicle: suspension in saline) of the same compound?
The T/C was 97 % of control.

Which results are given for `S=c1sc(-c2ccc(Cl)cc2)nn1CSc1nc2ccccc2o1`?
T/C (dose: 60.0 mg/kg/injection, schedule: Q01DX005 (ip), vehicle: saline with Tween-80): 97 % of control; T/C (dose: 120.0 mg/kg/injection, schedule: Q01DX005 (ip), vehicle: saline with Tween-80): 101 % of control; T/C (dose: 240.0 mg/kg/injection, schedule: Q01DX005 (ip), vehicle: saline with Tween-80): 95 % of control

How did the T/C [4] turn out when `C(=C\c1ccc(-c2nc3ccccc3o2)cc1)/c1ccc(-c2nc3ccccc3o2)cc1` was run?
Its T/C is 100 % of control.

What about the T/C [5] of the same compound?
Its T/C is 101 % of control.

What about the T/C [6] of the same compound?
The T/C was 102 % of control.

How did the T/C [7] turn out when `COC1C=COC2(C)Oc3c(C)c(O)c4c(O)c(c(C5SCCS5)c(O)c4c3C2=O)NC(=O)/C(C)=C\C=CC(C)C(O)C(C)C(O)C(C)C(OC(C)=O)C1C` (stereo not given) was run?
Its T/C is 100 % of control and 92 % of control.

And the T/C [8]?
Its T/C is 105 % of control and 106 % of control and 92 % of control.

What about the T/C [9] of the same compound?
The T/C was 100 % of control and 108 % of control.

What about the T/C [10] of the same compound?
Its T/C is 109 % of control and 111 % of control and 115 % of control.

Which T/C (dose: 37.5 mg/kg/injection, schedule: Q01DX005 (ip), vehicle: saline with Tween-80) does the source give for `N/N=C1/C(=O)N(c2cccc([N+](=O)[O-])c2)C(=O)C1C(=O)Nc1cccc([N+](=O)[O-])c1` (stereo not given) here?
The T/C was 101 % of control.

And the T/C (dose: 75.0 mg/kg/injection, schedule: Q01DX005 (ip), vehicle: saline with Tween-80)?
Its T/C is 100 % of control.

What about the T/C (dose: 150.0 mg/kg/injection, schedule: Q01DX005 (ip), vehicle: saline with Tween-80) of the same compound?
The T/C was 105 % of control.

What does the source list for `O=C1c2ccccc2CC1CN1CCCCC1` (stereo not given)?
T/C (dose: 6.25 mg/kg/injection, schedule: Q04DX002 (ip), vehicle: saline): 108 % of control; T/C (dose: 12.5 mg/kg/injection, schedule: Q04DX002 (ip), vehicle: saline): 100 % of control; T/C (dose: 25.0 mg/kg/injection, schedule: Q04DX002 (ip), vehicle: saline): 100 % of control

How did the T/C (dose: 50.0 mg/kg/injection, schedule: Q04DX003 (ip), vehicle: saline with Tween-80) turn out when `COc1ccc(NNc2ccc(OC)cc2)cc1` was run?
Its T/C is 100 % of control.

And the T/C (dose: 100.0 mg/kg/injection, schedule: Q04DX003 (ip), vehicle: saline with Tween-80)?
Its T/C is 92 % of control.

And the T/C (dose: 200.0 mg/kg/injection, schedule: Q04DX003 (ip), vehicle: saline with Tween-80)?
The T/C was 92 % of control.

With `CSCCCCN=[N+]=[N-]` as the compound, how does the T/C (dose: 60.0 mg/kg/injection, schedule: Q01DX005 (ip), vehicle: saline) read?
Its T/C is 104 % of control.

And the T/C (dose: 120.0 mg/kg/injection, schedule: Q01DX005 (ip), vehicle: saline)?
Its T/C is 112 % of control.

`CC(C)=CCc1c(O)ccc(C(=O)C2C(c3c(O)cc(-c4cc5ccc(O)cc5o4)cc3O)C=C(C)CC2c2ccc(O)cc2O)c1O` (stereo not given) was tested. Which T/C (dose: 3.75 mg/kg/injection, schedule: Q01DX005 (ip), vehicle: water) did it give?
The T/C was 94 % of control.

And the T/C (dose: 7.5 mg/kg/injection, schedule: Q01DX005 (ip), vehicle: water)?
Its T/C is 103 % of control.

And the T/C (dose: 15.0 mg/kg/injection, schedule: Q01DX005 (ip), vehicle: water)?
The T/C was 99 % of control.

And the T/C (dose: 30.0 mg/kg/injection, schedule: Q01DX005 (ip), vehicle: water)?
The T/C was 110 % of control.

What about the T/C (dose: 60.0 mg/kg/injection, schedule: Q01DX005 (ip), vehicle: water) of the same compound?
Its T/C is 113 % of control.

What does the source list for `NNC(=S)N/N=C/c1ccccn1`?
T/C (dose: 0.78 mg/kg/injection, schedule: Q01DX009 (ip), vehicle: saline): 99 % of control; T/C (dose: 1.56 mg/kg/injection, schedule: Q01DX009 (ip), vehicle: saline): 102 % of control and 117 % of control; T/C (dose: 1.56 mg/kg/injection, schedule: Q01DX009 (ip), vehicle: suspension in saline): 107 % of control; T/C (dose: 3.12 mg/kg/injection, schedule: Q01DX009 (ip), vehicle: suspension in saline): 109 % of control; T/C (dose: 6.25 mg/kg/injection, schedule: Q01DX009 (ip), vehicle: saline with Tween-80): 100 % of control; T/C (dose: 6.25 mg/kg/injection, schedule: Q01DX009 (ip), vehicle: saline): 110 % of control; T/C (dose: 6.25 mg/kg/injection, schedule: Q01DX009 (ip), vehicle: suspension in saline): 111 % of control; T/C (dose: 12.5 mg/kg/injection, schedule: Q01DX009 (ip), vehicle: saline): 150 % of control; T/C (dose: 16.5 mg/kg/injection, schedule: Q01DX009 (ip), vehicle: saline sonified): 122 % of control; T/C [7]: 150 % of control; T/C (dose: 25.0 mg/kg/injection, schedule: Q01DX009 (ip), vehicle: saline): 154 % of control and 170 % of control

Which results are given for `Cc1ccc(NCCN2CCCCC2)c2c(=O)c3ccc(Cl)cc3sc12`?
T/C [1]: 94 % of control; T/C [2]: 86 % of control; T/C [3]: 97 % of control

`CC(=O)OCC1OC(N2C(=O)c3ccccc3S2(=O)=O)C(OC(C)=O)C(OC(C)=O)C1OC(C)=O` (stereo not given) was tested. Which T/C (dose: 100.0 mg/kg/injection, schedule: Q04DX002 (ip), vehicle: saline with Tween-80) did it give?
The T/C was 100 % of control.

What about the T/C (dose: 200.0 mg/kg/injection, schedule: Q04DX002 (ip), vehicle: saline with Tween-80) of the same compound?
The T/C was 91 % of control.

And the T/C (dose: 400.0 mg/kg/injection, schedule: Q04DX002 (ip), vehicle: saline with Tween-80)?
The T/C was 96 % of control.

With `CC(C)N1CSC(=S)N(Cc2ccccc2)C1` as the compound, how does the T/C [7] read?
The T/C was 107 % of control.

And the T/C [8]?
Its T/C is 97 % of control and 98 % of control.

What about the T/C [9] of the same compound?
The T/C was 93 % of control and 98 % of control.

What about the T/C [10] of the same compound?
Its T/C is 89 % of control.

`O=C(Nc1ccccc1Cl)Oc1ccc(Cl)cc1Cl` was tested. Which T/C [4] did it give?
The T/C was 101 % of control.

And the T/C [5]?
The T/C was 110 % of control.

What about the T/C [6] of the same compound?
The T/C was 106 % of control.

Which T/C (dose: 25.0 mg/kg/injection, schedule: Q01DX005 (ip), vehicle: water) does the source give for `CSCSCC(N)CO` (stereo not given) here?
The T/C was 95 % of control.

And the T/C (dose: 50.0 mg/kg/injection, schedule: Q01DX005 (ip), vehicle: water)?
Its T/C is 100 % of control.

And the T/C (dose: 100.0 mg/kg/injection, schedule: Q01DX005 (ip), vehicle: water)?
Its T/C is 89 % of control.

And the T/C (dose: 200.0 mg/kg/injection, schedule: Q01DX005 (ip), vehicle: water)?
The T/C was 95 % of control.

And the T/C (dose: 400.0 mg/kg/injection, schedule: Q01DX005 (ip), vehicle: water)?
Its T/C is 89 % of control.
